What all share (assay): growth of human tumour cells (NCI), 48 h
Assay [1] relates to SK-OV-3.
The subject of assay [2] is SF-539.
Assay [3] relates to OVCAR-8.
Assay [4] deals with OVCAR-4.
In assay [5] the test system is SNB-19.
Assay [6] concerns ACHN.
Assay [7] has as its system CAKI-1.
The test system of assay [8] is SN12C.
The subject of assay [9] is UACC-257.
The test system of assay [10] is NCI-H226.
For assay [11], the system named is UO-31.
The test system of assay [12] is HCT-15.
For assay [13], the system named is MCF7.
For assay [14], the system named is KM12.
For assay [15], the system named is MOLT-4.
In assay [16] the test system is OVCAR-3.
Assay [17] concerns NCI-H522.
In assay [18] the test system is Malme-3M.
For assay [19], the system named is LOX IMVI.

The structures appear in SMILES notation.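 A five-concentration, 48-hour dose response in 96-well plates underlies each endpoint, interpolated linearly between surrounding concentrations. Abbreviation: GI50, concentration required for 50% inhibition of growth.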 Activity calls are given as the source filed them. Cut-off read from the data, not from the text of the source: active = GI50 up to about 1.1 µM and inactive = higher.

Consider `COc1ccc(C(=O)/C=C/c2ccc(OCCCOc3ccc(/C=C/C(=O)c4ccc(OC)cc4)cc3)cc2)cc1`, for which the GI50 in assay [1] is > 100 µM (inactive); in [2], 28.8 µM (inactive); in [3] it was > 100 µM (inactive); in assay [4], 60.7 µM (inactive); in assay [5] it was > 100 µM (inactive); in [6], > 100 µM (inactive). Moreover, the GI50 was > 100 µM (inactive) in assay [7]; > 100 µM (inactive) in assay [8]; > 100 µM (inactive) in assay [9]; > 100 µM (inactive) in assay [10]; > 100 µM (inactive) in assay [11]; above 100 µM in [12]. Moreover, the GI50 in assay [13] is > 100 µM (inactive); in [14], 91.2 µM (inactive); in [15], > 100 µM (inactive).

Take `CC(=O)ONC(C(=O)C(C)(C)C)C(=O)C(C)(C)C`: the GI50 in assay [1], in assay [2], in [3], in assay [4], in assay [5] and in assay [6] was > 100 µM (inactive) in each case. In addition, the GI50 in assay [7], in [16], in [8], in assay [9], in assay [10] and in assay [17] was > 100 µM (inactive) each time. Moreover, the GI50 in [18] is > 100 µM (inactive); in assay [11], > 100 µM (inactive); in assay [19], > 100 µM (inactive); in assay [12], above 100 µM; in assay [13] it was > 100 µM (inactive); in assay [14], > 100 µM (inactive). The GI50 in assay [15] was > 100 µM (inactive).

On to `c1coc(-c2nccc3c2[nH]c2ccccc23)c1`, for which the GI50 in assay [1], in [2], in [3], in [4], in [5] and in assay [6] was > 100 µM (inactive) throughout. The GI50 in assay [7] was > 100 µM (inactive); in assay [16] it was > 100 µM (inactive); in assay [8] it was > 100 µM (inactive); in assay [9] it was > 100 µM (inactive); in assay [10] it was 29.1 µM (inactive); in [17], > 100 µM (inactive). In addition, the GI50 was > 100 µM (inactive) in assay [18]; > 100 µM (inactive) in assay [19]; above 100 µM in assay [12]; > 100 µM (inactive) in assay [13]; > 100 µM (inactive) in assay [14]; > 100 µM (inactive) in assay [15].

For `O=C1c2ccccc2C(=O)C2NC(CCCCCSSCCCCCC3=NC4C(=O)c5ccccc5C(=O)C4N3)=NC12` (centres undefined), the GI50 in assay [1] is 50.8 µM (inactive); in assay [2], 24.3 µM (inactive); in assay [3] it was 45.2 µM (inactive); in assay [4] it was > 100 µM (inactive); in assay [6], 10.4 µM (inactive); in [7] it was 6.47 µM (inactive). For the same molecule, the GI50 in assay [16] was > 100 µM (inactive); in assay [9], 64.3 µM (inactive); in assay [10], > 100 µM (inactive); in assay [17], 15 µM (inactive); in assay [11], 7.74 µM (inactive); in assay [19], > 100 µM (inactive). The GI50 in assay [12] is 40.6 µM; in assay [13], > 100 µM (inactive); in assay [14], 80.9 µM (inactive); in [15] it was 3.8 µM (inactive).

`c1ccc(-c2cc(-c3cccs3)c(-c3cccs3)s2)cc1`: the GI50 in assay [1] was > 100 µM (inactive); in assay [2], > 100 µM (inactive); in assay [3], > 100 µM (inactive); in [4] it was 14.3 µM (inactive); in [6], 70.5 µM (inactive); in assay [7], 26.4 µM (inactive). In addition, the GI50 is 56.2 µM (inactive) in [16]; 85.9 µM (inactive) in assay [8]; 56.8 µM (inactive) in [9]; > 100 µM (inactive) in assay [10]; 26.5 µM (inactive) in assay [17]; 26.2 µM (inactive) in [11]. Also, the GI50 is 22.8 µM in assay [12], 16.6 µM (inactive) in [13], 14.9 µM (inactive) in [14] and 21.2 µM (inactive) in [15].

The values are drawn from ChEMBL document CHEMBL1201862, “PubChem BioAssay data set” (2004).
